According to the supplement of paper PMC10307832:

Experiments:
Experiment in all cases: relative viability (nuclei count vs DMSO), 5 days (fraction); higher = more cells survive
NCI-H1975 = tested on: NCI-H1975
Summary of the method: (§1)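 Nuclei were stained with Hoechst during a one-step fixation (final 0.05% Triton X-100, 1% formaldehyde, 1 ug/ml Hoechst) carried out 5 days after dosing, then counted on 4× images. The cells, lung cancer lines in 1536-well plates, had been dosed by pin tool the day after seeding with one drug alone or a fixed anchor-drug dose plus five library-drug doses (not always all listed) in √10 steps. Relative viability is the nuclei count in treated wells divided by that in vehicle wells, and each value is the median of duplicate plates.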

LK-2 = tested on: LK-2
Summary of the method: as §1

EKVX = tested on: EKVX
Summary of the method: as §1

ChaGo-K-1 = tested on: ChaGo-K-1
Summary of the method: as §1

EPLC-272H = tested on: EPLC-272H
Summary of the method: as §1

NCI-H1666 = tested on: NCI-H1666
Summary of the method: as §1

SW 1573 = tested on: SW 1573
Summary of the method: as §1

EMC-BAC-2 = tested on: EMC-BAC-2
Summary of the method: as §1

HCC-78 = tested on: HCC-78
Summary of the method: as §1

LCLC-103H = tested on: LCLC-103H
Summary of the method: as §1

NCI-H322M = tested on: NCI-H322M
Summary of the method: as §1

LU99A = tested on: LU99A
Summary of the method: as §1

SW 900 = tested on: SW 900
Summary of the method: as §1

HCC-827 = tested on: HCC-827
Summary of the method: as §1

NCI-H2342 = tested on: NCI-H2342
Summary of the method: as §1

RERF-LC-KJ = tested on: RERF-LC-KJ
Summary of the method: as §1

NCI-H23 = tested on: NCI-H23
Summary of the method: as §1

SK-LU-1 = tested on: SK-LU-1
Summary of the method: as §1

PC-14 = tested on: PC-14
Summary of the method: as §1

NCI-H2126 = tested on: NCI-H2126
Summary of the method: as §1

NCI-H2405 = tested on: NCI-H2405
Summary of the method: as §1

## COc1cc2nccc(Oc3ccc(NC(=O)Nc4cc(C)on4)c(Cl)c3)c2cc1OC [Tivozanib] + CC(=O)Nc1cccc(-n2c(=O)n(C3CC3)c(=O)c3c(Nc4ccc(I)cc4F)n(C)c(=O)c(C)c32)c1 [Trametinib] (partner 0.02 µM)
NCI-H1975; first compound 0.005 µM
  relative viability: 0.296
NCI-H1975; first compound 0.01581 µM
  relative viability: 0.39
NCI-H1975; first compound 0.05 µM
  relative viability: 0.442
NCI-H1975; first compound 0.1581 µM
  relative viability: 0.256
NCI-H1975; first compound 0.5 µM
  relative viability: 0.312
LK-2; first compound 0.005 µM
  relative viability: 0.933
LK-2; first compound 0.01581 µM
  relative viability: 0.534
LK-2; first compound 0.05 µM
  relative viability: 0.622
LK-2; first compound 0.1581 µM
  relative viability: 0.85
LK-2; first compound 0.5 µM
  relative viability: 0.773
EKVX; first compound 0.005 µM
  relative viability: 0.32
EKVX; first compound 0.01581 µM
  relative viability: 0.467
EKVX; first compound 0.05 µM
  relative viability: 0.477
EKVX; first compound 0.1581 µM
  relative viability: 0.292
EKVX; first compound 0.5 µM
  relative viability: 0.345
ChaGo-K-1; first compound 0.005 µM
  relative viability: 0.853
ChaGo-K-1; first compound 0.01581 µM
  relative viability: 0.89
ChaGo-K-1; first compound 0.05 µM
  relative viability: 0.875
ChaGo-K-1; first compound 0.1581 µM
  relative viability: 0.859
ChaGo-K-1; first compound 0.5 µM
  relative viability: 0.868
EPLC-272H; first compound 0.005 µM
  relative viability: 0.243
EPLC-272H; first compound 0.01581 µM
  relative viability: 0.277
EPLC-272H; first compound 0.05 µM
  relative viability: 0.27
EPLC-272H; first compound 0.1581 µM
  relative viability: 0.235
EPLC-272H; first compound 0.5 µM
  relative viability: 0.246
NCI-H1666; first compound 0.005 µM
  relative viability: 0.839
NCI-H1666; first compound 0.01581 µM
  relative viability: 0.78
NCI-H1666; first compound 0.05 µM
  relative viability: 0.977
NCI-H1666; first compound 0.1581 µM
  relative viability: 0.922
NCI-H1666; first compound 0.5 µM
  relative viability: 0.862
SW 1573; first compound 0.005 µM
  relative viability: 0.541
SW 1573; first compound 0.01581 µM
  relative viability: 0.644
SW 1573; first compound 0.05 µM
  relative viability: 0.464
SW 1573; first compound 0.1581 µM
  relative viability: 0.457
SW 1573; first compound 0.5 µM
  relative viability: 0.416
EMC-BAC-2; first compound 0.005 µM
  relative viability: 0.886
EMC-BAC-2; first compound 0.01581 µM
  relative viability: 0.844
EMC-BAC-2; first compound 0.05 µM
  relative viability: 0.905
EMC-BAC-2; first compound 0.1581 µM
  relative viability: 0.827
EMC-BAC-2; first compound 0.5 µM
  relative viability: 0.952
HCC-78; first compound 0.005 µM
  relative viability: 0.788
HCC-78; first compound 0.01581 µM
  relative viability: 0.828
HCC-78; first compound 0.05 µM
  relative viability: 0.711
HCC-78; first compound 0.1581 µM
  relative viability: 0.859
HCC-78; first compound 0.5 µM
  relative viability: 0.537
LCLC-103H; first compound 0.005 µM
  relative viability: 0.673
LCLC-103H; first compound 0.01581 µM
  relative viability: 0.78
LCLC-103H; first compound 0.05 µM
  relative viability: 0.694
LCLC-103H; first compound 0.1581 µM
  relative viability: 0.729
LCLC-103H; first compound 0.5 µM
  relative viability: 0.695
NCI-H322M; first compound 0.005 µM
  relative viability: 0.509
NCI-H322M; first compound 0.01581 µM
  relative viability: 0.602
NCI-H322M; first compound 0.05 µM
  relative viability: 0.55
NCI-H322M; first compound 0.1581 µM
  relative viability: 0.517
NCI-H322M; first compound 0.5 µM
  relative viability: 0.577
LU99A; first compound 0.005 µM
  relative viability: 0.626
LU99A; first compound 0.01581 µM
  relative viability: 0.496
LU99A; first compound 0.05 µM
  relative viability: 0.61
LU99A; first compound 0.1581 µM
  relative viability: 0.396
LU99A; first compound 0.5 µM
  relative viability: 0.563
SW 900; first compound 0.005 µM
  relative viability: 0.692
SW 900; first compound 0.01581 µM
  relative viability: 1.18
SW 900; first compound 0.05 µM
  relative viability: 1.04
SW 900; first compound 0.5 µM
  relative viability: 0.829
HCC-827; first compound 0.005 µM
  relative viability: 0.52
HCC-827; first compound 0.01581 µM
  relative viability: 0.543
HCC-827; first compound 0.05 µM
  relative viability: 0.571
HCC-827; first compound 0.1581 µM
  relative viability: 0.527
HCC-827; first compound 0.5 µM
  relative viability: 0.533
NCI-H2342; first compound 0.005 µM
  relative viability: 0.823
NCI-H2342; first compound 0.01581 µM
  relative viability: 0.834
NCI-H2342; first compound 0.05 µM
  relative viability: 1.92
NCI-H2342; first compound 0.5 µM
  relative viability: 0.733
RERF-LC-KJ; first compound 0.005 µM
  relative viability: 0.758
RERF-LC-KJ; first compound 0.01581 µM
  relative viability: 0.989
RERF-LC-KJ; first compound 0.05 µM
  relative viability: 0.805
RERF-LC-KJ; first compound 0.1581 µM
  relative viability: 0.859
RERF-LC-KJ; first compound 0.5 µM
  relative viability: 0.805
NCI-H23; first compound 0.005 µM
  relative viability: 0.363
NCI-H23; first compound 0.01581 µM
  relative viability: 0.364
NCI-H23; first compound 0.05 µM
  relative viability: 0.383
NCI-H23; first compound 0.5 µM
  relative viability: 0.373
SK-LU-1; first compound 0.005 µM
  relative viability: 0.508
SK-LU-1; first compound 0.01581 µM
  relative viability: 0.498
SK-LU-1; first compound 0.05 µM
  relative viability: 0.594
SK-LU-1; first compound 0.1581 µM
  relative viability: 0.3
SK-LU-1; first compound 0.5 µM
  relative viability: 0.503
PC-14; first compound 0.005 µM
  relative viability: 0.654
PC-14; first compound 0.01581 µM
  relative viability: 0.766
PC-14; first compound 0.05 µM
  relative viability: 0.844
PC-14; first compound 0.1581 µM
  relative viability: 0.84
PC-14; first compound 0.5 µM
  relative viability: 0.751
NCI-H2126; first compound 0.005 µM
  relative viability: 0.595
NCI-H2126; first compound 0.01581 µM
  relative viability: 0.556
NCI-H2126; first compound 0.05 µM
  relative viability: 0.567
NCI-H2126; first compound 0.1581 µM
  relative viability: 0.444
NCI-H2126; first compound 0.5 µM
  relative viability: 0.555
NCI-H2405; first compound 0.005 µM
  relative viability: 0.543
NCI-H2405; first compound 0.01581 µM
  relative viability: 0.664
NCI-H2405; first compound 0.05 µM
  relative viability: 0.607
NCI-H2405; first compound 0.1581 µM
  relative viability: 0.499
NCI-H2405; first compound 0.5 µM
  relative viability: 0.554
